We go through 23 compounds from ChEMBL document CHEMBL3784964, “Targeting the trehalose utilization pathways of Mycobacterium tuberculosis” (Medchemcomm, 2016).

The structures appear in SMILES notation. Values after ≈ are worked out from the molar mass of the structure shown.

Assay [1] can be described thus: Competitive inhibition of recombinant Mycobacterium smegmatis trehalose synthase using DNPGlc as substrate by Dixon plot analysis. More on the design: species or system Mycolicibacterium smegmatis.
Assay [2] relates to Mycobacterium tuberculosis. The assay is described as follows: Antimycobacterial activity against Mycobacterium tuberculosis H37Ra ATCC 25177. Type of assay: functional.
A short description of assay [3]: Inhibition of recombinant Mycobacterium tuberculosis H37Rv N-terminal His-tagged glgE expressed in Escherichia coli T7 Rosetta cells using MESG as substrate measured every 5 sec for 10 mins by PNP enzyme coupled assay.
The nature of assay [4]: Inhibition of Mycobacterium tuberculosis antigen 85C mycolyltransferase activity using trehalose as substrate measured every 20 sec for 30 mins by 4-methylumbelliferyl butyrate fluorescence assay.
Assay [5] deals with Mycobacterium tuberculosis. The assay is described as follows: Antimycobacterial activity against Mycobacterium tuberculosis H37Rv by 2-fold broth dilution method. Type of assay: functional.
For assay [6], the system named is Mycobacterium tuberculosis. The assay is described as follows: Antimycobacterial activity against Mycobacterium tuberculosis H37Rv mc26206 incubated for 96 hrs by resazurin microtiter assay. Type of assay: functional. To be noted: H37Rv mc26206, 96 h. (Resazurin is reduced to fluorescent resorufin, in cell work by metabolically active cells.)
The subject of assay [7] is Mycobacterium tuberculosis. The assay is described as follows: Antimycobacterial activity against Mycobacterium tuberculosis incubated for 96 hrs by resazurin microtiter assay. Type of assay: functional.
Assay [8] deals with Mycobacterium tuberculosis. Put plainly: Antimycobacterial activity against Mycobacterium tuberculosis H37Rv. Type of assay: functional.
Assay [9] deals with Mycobacterium tuberculosis. The assay is described as follows: Antimycobacterial activity against Mycobacterium tuberculosis H37Rv by microdilution method. The class given is functional. (In general: Broth dilution looks for growth in wells or tubes with falling amounts of substance.)
Assay [10] is described as follows: Inhibition of Mycobacterium tuberculosis antigen 85C mycolyltransferase activity incubated for 30 mins by scintillation counting method in presence of [14C]-trehalose.
Assay [11] has as its system Mycobacterium tuberculosis. The assay is described as follows: Inhibition of Mycobacterium tuberculosis antigen 85C mycolyltransferase activity at 100 ug/ml incubated for 30 mins by scintillation counting method in presence of [14C]-trehalose relative to control.
Assay [12] can be described thus: Inhibition of Mycobacterium tuberculosis antigen 85C acyltransferase activity preincubated with enzyme by UV-vis spectrophotometric analysis.

By Ki is commonly meant the equilibrium dissociation constant of an inhibitor or competing ligand from its target. Take `O=C(Nc1ccccc1)O/N=C1\N[C@H](CO)[C@@H](O)[C@H](O)[C@H]1O`: the Ki in [1] amounted to 2.1 µM.

As a reminder, the MIC is the least concentration at which growth counts as inhibited. Higher therefore signals a less susceptible organism. Regarding `CCCCC(CC)CNC[C@H]1O[C@H](O[C@H]2O[C@H](CNCC(CC)CCCC)[C@@H](O)[C@H](O)[C@H]2O)[C@H](O)[C@@H](O)[C@@H]1O` (stereo partly drawn), in assay [2], the MIC is 32 µg/mL (≈ 56.7 µM).

For `OC[C@H]1NC[C@H](O)[C@@H](O)[C@@H]1O` [DUVOGLUSTAT], the Ki in assay [1] worked out at 0.25 µM.

Consider `OC[C@H]1N[C@H](CO)[C@@H](O[C@H]2O[C@H](CO)[C@@H](O)[C@H](O)[C@H]2O)[C@@H]1O`, for which the Ki in assay [3] came out at 237 µM.

For the compound `CCOC(=O)c1c(NC(=O)SC[C@H]2O[C@@H](O)[C@@H](O)[C@@H]2O)sc2c1CCCC2`, the inhibition constant Ki in [4] came to 18.2 µM.

In assay [5], `CC(C)=CCC/C(C)=C/CNCCNC1C2CC3CC(C2)CC1C3` (stereo not drawn) [SQ109] had an MIC of 1.5 µg/mL (≈ 4.54 µM).

In turn, `CCCCCCCCCCNC[C@H]1O[C@H](O[C@H]2O[C@H](CNCCCCCCCCCC)[C@@H](O)[C@H](O)[C@H]2O)[C@H](O)[C@@H](O)[C@@H]1O` returned an MIC in [2] of 1.3 µg/mL (≈ 2.09 µM).

`O=c1c2ccccc2[se]n1-c1ccccc1` [EBSELEN]: in assay [6], the minimal inhibitory concentration (MIC) came to 20 µg/mL (≈ 72.9 µM).

As for `CCCC1CCc2c(sc(N)c2C#N)C1` (stereo not drawn), in assay [7], 100 µM (≈ 22 µg/mL) was the least that counted as inhibitory (MIC).

Compound `CCCCCCCCCCCCNC[C@H]1O[C@H](O[C@H]2O[C@H](CNCCCCCCCCCCCC)[C@@H](O)[C@H](O)[C@H]2O)[C@H](O)[C@@H](O)[C@@H]1O` registered an MIC in assay [2] of 8 µg/mL (≈ 11.8 µM).

`CCCn1cnc2cc(NCc3ccc(Cl)cc3Cl)ccc21` returned a minimal inhibitory concentration (MIC) in assay [8] of 16 µM.

In [9], `COC(=O)c1c(NC(=O)c2c(F)c(F)c(F)c(F)c2F)sc2c1CCCCC2` had an MIC of 1 µM (≈ 0.419 µg/mL).

The term IC50 denotes the concentration that inhibits the measured activity by half. For the compound `CCCCCCCCS(=O)(=O)OCCN1C(=O)c2ccccc2C1=O`, the IC50 in assay [10] came out at 4.3 µM.

For the compound `O=C(Nc1ccc(F)c(F)c1F)NC12CC3CC(CC(C3)C1)C2`, in assay [8], 0.5 µg/mL was the least that counted as inhibitory (MIC).

In assay [9], `c1ccc(CNC23CC4CC(CC(C4)C2)C3)cc1` returned a minimal inhibitory concentration (MIC) of 10 µM (≈ 2.41 µg/mL).

For orientation: inhibition means the share of the control response that was lost under treatment. For `[N-]=[N+]=NC[C@H]1O[C@H](O[C@H]2O[C@H](CO)[C@@H](O)[C@H](O)[C@H]2O)[C@H](O)[C@@H](O)[C@@H]1O`, the inhibition in assay [11] is 60%.

Consider `CCCCCCCCS(=O)(=O)NC[C@H]1O[C@H](O[C@H]2O[C@H](CNS(=O)(=O)CCCCCCCC)[C@@H](O)[C@H](O)[C@H]2O)[C@H](O)[C@@H](O)[C@@H]1O`, for which the MIC in assay [2] worked out at 16 µg/mL (≈ 23.1 µM).

In the case of `COC(=O)CC[C@H]1O[C@@H](OC)[C@@H](O)[C@@H]1O`, the 50% inhibitory concentration (IC50) in [12] is 25000 µM.

In the case of `OC[C@@H]1[C@@H](O)[C@H](O)C2[C@H](O)[C@@H](O)CN21` (stereo partly drawn), the inhibitory constant (Ki) in assay [1] came out at 2.5 µM.

`CCCCCCCCNC[C@H]1O[C@H](O[C@H]2O[C@H](CNCCCCCCCC)[C@@H](O)[C@H](O)[C@H]2O)[C@H](O)[C@@H](O)[C@@H]1O` yielded a minimal inhibitory concentration (MIC) in assay [2] of 4 µg/mL (≈ 7.08 µM).

`CCc1sc(NC(=O)c2c(F)c(F)c(F)c(F)c2F)c(C(=O)OC(C)C)c1C`: the minimum inhibitory concentration (MIC) in assay [9] was 1 µM (≈ 0.421 µg/mL).

The compound `CN1CCN(Cc2cc(-c3ccc(Cl)cc3)n(-c3ccc(Cl)cc3)c2-c2ccccc2)CC1` displayed a minimal inhibitory concentration (MIC) in assay [8] of 1.5 µg/mL.

In turn, `CCOC(=O)c1c(NC(=O)c2c(F)c(F)c(F)c(F)c2F)sc(C(N)=O)c1C` had an MIC in assay [9] of 0.5 µM (≈ 0.211 µg/mL).
